The text below walks through data of patent US9611262B2, “Substituted 2-azabicycles and their use as orexin receptor modulators” (JANSSEN PHARMACEUTICA NV, priority 2014, dated 2017).

One assay concerns the target rat orexin 1 receptor (Rattus norvegicus, UniProt P56718). Briefly: Rat orexin 1 receptor radioligand binding (competitive). As to conditions: HEK293 cells stably expressing rat orexin 1 receptor; 4 nM radioligand; averages of 2-20 runs; read-out: rOX1 Ki. How it is done: (§1) The in vitro affinity of the compounds of the invention for the rat/human orexin 1 and human orexin 2 receptors was determined by competitive radioligand binding using [^3H](1-(5-(2-fluoro-phenyl)-2-methyl-thiazol-4-yl)-1-((S)-2-(5-phenyl-(1,3,4)oxadiazol-2-ylmethyl)-pyrrolidin-1-yl)-methanone) (Langmead et al., 2004) and [^3H]EMPA (n-ethyl-2[96-methoxy-pyridin-3-yl)-(toluene-2-sulfonyl)-amino]-N-pyridin-3-ylmethyl acetamide), respectively (Langmead et al., 2004, British Journal of Pharmacology 141:340-346; Malherbe et al., 2004, British Journal of Pharmacology 156:1326-41).
(§2) Data are analyzed using pc-Sandy macro and graphed on Graphpad Prism 5. For analysis, each concentration point is averaged from triplicate values and the averaged values are plotted on Graphpad Prism. The IC50 was determined by applying the following equation (GraphPad Prism 5.0, San Diego) for one site competition where X=log (concentration) and Y=specific binding. Top denotes the total [^3H]— (1-(5-(2-fluoro-phenyl)-2-methyl-thiazol-4-yl)-1-((S)-2-(5-phenyl-(1,3,4)oxadiazol-2-ylmethyl)-pyrrolidin-1-yl)-methanone) binding, bottom denotes the nonspecific [^3H]— (1-(5-(2-fluoro-phenyl)-2-methyl-thiazol-4-yl)-1-((S)-2-(5-phenyl-(1,3,4)oxadiazol-2-ylmethyl)-pyrrolidin-1-yl)-methanone) binding. Graphpad Prism calculates Ki value from IC50 and the pre-determined Kd values for [^3H]— (1-(5-(2-fluoro-phenyl)-2-methyl-thiazol-4-yl)-1-((S)-2-(5-phenyl-(1,3,4)oxadiazol-2-ylmethyl)-pyrrolidin-1-yl)-methanone) and [^3H]-EMPA. The Ki for each compound is then uploaded into 3DX. Each run comprises individual compounds in triplicate. The data in Table 1 and Table 2 represent averages from between 2-20 runs
(§3) Rat and Human Orexin 1 Receptor Radioligand Binding Studies
(§4) Human Embryonic Kidney 293 cells (HEK293) stably expressing rat orexin 1 receptor (Genebank accession number NM_001525) or Chinese ovary cells (CHO) stably expressing human orexin 1 receptor (Genebank accession number […]) were grown to confluency in DMEM (Hyclone, cat # SH30022), 10% FBS, 1× Pen/Strep, 1× sodium pyruvate, 10 mM HEPES, 600 μg/mL G418 and DMEM/F12 (Gibco, Cat #11039), 10% FBS, 1× Pen/Strep, 600 μg/mL G418 media, respectively on 150 cm^2 tissue culture plates, washed with 5 mM EDTA in PBS (HyClone Dulbecco's Phosphate Buffered Saline 1× with Calcium and Magnesium, Cat # SH30264.01, hereafter referred to simply as PBS) and scraped into 50 ml tubes. After centrifugation (2K×G, 5 min at 4° C.), the supernatant was aspirated and the pellets frozen and stored at −80° C. Cells were resuspended in PBS in the presence of 1 tablet of protease inhibitor cocktail (Roche, Cat. #11836145001) per 50 mL. […] Competition binding experiments in 96 well polypropylene plates were performed using [^3H]— (1-(5-(2-fluoro-phenyl)-2-methyl-thiazol-4-yl)-1-((S)-2-(5-phenyl-(1,3,4)oxadiazol-2-ylmethyl)-pyrrolidin-1-yl)-methanone) (Moraveck Corporation, specific activity=35.3 Ci/mmol), diluted to a 10 nM concentration in PBS (4 nM final). Compounds were solubilized in 100% DMSO (Acros Organics, Cat. #61042-1000) and tested over a range of 7 concentrations (from 0.1 nM to 10 μM). The final concentration of DMSO in the reactions is equal to or less than 0.1%. Total and nonspecific binding was determined in the absence and presence of 10 μM almorexant. The total volume of each reaction is 200 μL (20 μL of diluted compounds, 80 μL of [^3H]— (1-(5-(2-fluoro-phenyl)-2-methyl-thiazol-4-yl)-1-((S)-2-(5-phenyl-(1,3,4)oxadiazol-2-ylmethyl)-pyrrolidin-1-yl)-methanone) diluted in PBS and 100 μL of the cell suspension). Reactions were run for 60 min at room temperature and terminated by filtration through GF/C filter plates (PerkinElmer, Cat. #6005174) presoaked in 0.3% polyethylenimine using the cell harvester (PerkinElmer Filtermate). The plates were washed 3 times by aspirating 30 ml PBS through the plates. Plates were dried in 55° C. oven for 60 min, scintillation fluid was added, and the radioactivity was counted on a Topcount (Packard). […]

A further assay deals with human orexin 1 receptor (Homo sapiens (Human), UniProt O43613). Briefly: Human orexin 1 receptor radioligand binding (competitive). As to conditions: CHO cells stably expressing human orexin 1 receptor; 4 nM radioligand; averages of 2-20 runs; read-out: hOX1 Ki. How it is done: as §1, §2, §3, §4
The target of another assay is human orexin 2 receptor (Homo sapiens (Human), UniProt O43614). Briefly: Human orexin 2 receptor radioligand binding ([3H]-EMPA competition). As to conditions: HEK293 stably expressing human orexin 2 receptor; 2 nM [3H]-EMPA; averages of 2-20 runs; read-out: hOX2 Ki. In a few lines:
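Membranes-free whole HEK293 cells stably expressing human OX2 receptor incubated with [3H]-EMPA and compound (7 concentrations, 0.1 nM–10 μM, ≤0.1% DMSO) for 60 min at room temperature; nonspecific binding with 10 μM almorexant. Filtration and scintillation counting; one-site IC50 converted to Ki using predetermined Kd, triplicates averaged over 2-20 runs.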

Sequence of human orexin 1 receptor (O43613 whole entry): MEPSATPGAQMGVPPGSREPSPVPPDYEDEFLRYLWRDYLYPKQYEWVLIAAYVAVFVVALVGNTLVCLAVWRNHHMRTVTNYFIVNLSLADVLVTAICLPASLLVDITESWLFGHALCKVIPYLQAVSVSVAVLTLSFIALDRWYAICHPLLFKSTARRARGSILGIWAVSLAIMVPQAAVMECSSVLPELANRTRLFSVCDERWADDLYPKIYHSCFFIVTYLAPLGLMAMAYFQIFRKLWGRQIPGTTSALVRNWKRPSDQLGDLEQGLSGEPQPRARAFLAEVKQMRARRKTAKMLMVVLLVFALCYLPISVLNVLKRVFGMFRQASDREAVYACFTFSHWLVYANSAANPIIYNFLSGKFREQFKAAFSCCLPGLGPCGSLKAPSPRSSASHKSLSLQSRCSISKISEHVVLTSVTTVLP
Sequence of human orexin 2 receptor (O43614 whole entry): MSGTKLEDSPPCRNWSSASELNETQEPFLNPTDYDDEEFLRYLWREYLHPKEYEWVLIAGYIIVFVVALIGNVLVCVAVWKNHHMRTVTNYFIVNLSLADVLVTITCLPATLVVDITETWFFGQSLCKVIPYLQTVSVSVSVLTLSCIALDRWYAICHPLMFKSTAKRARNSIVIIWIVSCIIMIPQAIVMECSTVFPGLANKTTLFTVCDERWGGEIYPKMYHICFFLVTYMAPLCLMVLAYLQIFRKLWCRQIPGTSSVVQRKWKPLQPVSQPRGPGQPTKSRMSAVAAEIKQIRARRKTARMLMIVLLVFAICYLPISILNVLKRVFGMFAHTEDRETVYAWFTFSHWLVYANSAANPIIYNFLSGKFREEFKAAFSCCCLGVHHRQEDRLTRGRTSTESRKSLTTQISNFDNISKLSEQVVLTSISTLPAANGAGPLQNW

On to `Cc1ccc(Br)c(C(=O)N2C(C)C3CC(Nc4cnc(C(F)(F)F)cn4)C2C3)n1` (racemic) [Example 7, (R/S)-(3-bromo-6-methylpyridin-2-yl)(3-methyl-6-((5-(trifluoromethyl)pyrazin-2-yl)amino)-2-azabicyclo[2.2.1]heptan-2-yl)methanone], for which the Ki is 125 nM on rat orexin 1 receptor, 144 nM on human orexin 1 receptor and 1200 nM on human orexin 2 receptor.
For `CC1C2CC(Oc3ccc(C(F)(F)F)cn3)C(C2)N1C(=O)c1ncccc1-c1ncccn1` (racemic) [Example 14] the same measures were 11 nM, 13 nM and 3700 nM.
`Cc1ccc(-n2nccn2)c(C(=O)N2C(C)C3CC(Oc4cnc(C(F)(F)F)cn4)C2C3)n1` (racemic) [Example 42, (R/S)-(6-methyl-3-(2H-1,2,3-triazol-2-yl)pyridin-2-yl)(3-methyl-6-((5-(trifluoromethyl)pyrazin-2-yl)oxy)-2-azabicyclo[2.2.1]heptan-2-yl)methanone]: the Ki on rat orexin 1 receptor was 55 nM; at human orexin 1 receptor, 45 nM; on human orexin 2 receptor, more than 10000 nM.
On to `Cc1ccc(-n2nccn2)c(C(=O)N2C(C)C3CC(Nc4ccc(C(F)(F)F)cn4)C2C3)n1` (racemic) [Example 58, (R/S)-(6-methyl-3-(2H-1,2,3-triazol-2-yl)pyridin-2-yl)(3-methyl-6-((5-(trifluoromethyl)pyridin-2-yl)amino)-2-azabicyclo[2.2.1]heptan-2-yl)methanone], for which the Ki on rat orexin 1 receptor came out at 11 nM; on human orexin 1 receptor, 14 nM; on human orexin 2 receptor, 236 nM.
For `Cc1cnc(C(=O)N2C(C)C3CC(Nc4ccc(C(F)(F)F)cn4)C2C3)c(-c2ncccn2)c1` (racemic) [Example 59, (R/S)-(5-methyl-3-(pyrimidin-2-yl)pyridin-2-yl)(3-methyl-6-((5-(trifluoromethyl)pyridin-2-yl)amino)-2-azabicyclo[2.2.1]heptan-2-yl)methanone], the Ki at rat orexin 1 receptor worked out at 20 nM; at human orexin 1 receptor, 53 nM; at human orexin 2 receptor, 4100 nM.
Regarding `O=C(c1c(F)cccc1-c1ncco1)N1C(CF)C2CC(Oc3ccc(C(F)(F)F)cn3)C1C2` (racemic) [Example 71], the Ki on rat orexin 1 receptor amounted to 32 nM; at human orexin 1 receptor, 29 nM; at human orexin 2 receptor, 1500 nM.
On to `Cc1cnc(C(=O)N2C(CC(C)C)C3CC(Oc4ccc(C(F)(F)F)cn4)C2C3)c(-n2nccn2)c1` (racemic) [Example 208, (R/S)-[2-isobutyl-5-[[5-(trifluoromethyl)-2-pyridyl]oxy]-3-azabicyclo[2.2.1]heptan-3-yl]-[5-methyl-3-(triazol-2-yl)-2-pyridyl]methanone], for which the Ki on rat orexin 1 receptor was 177 nM; at human orexin 1 receptor, 170 nM; at human orexin 2 receptor it was 418 nM.
For `CC(C)CC1C2CC(Oc3ccc(C(F)(F)F)cn3)C(C2)N1C(=O)c1ccccc1-c1ncccn1` (racemic) [Example 209, (R/S)-[2-isobutyl-5-[[5-(trifluoromethyl)-2-pyridyl]oxy]-3-azabicyclo[2.2.1]heptan-3-yl]-(2-pyrimidin-2-ylphenyl)methanone] the same measures were 44 nM, 24 nM and 3000 nM.
With `CC(C)CC1C2CC(Oc3ccc(C(F)(F)F)cn3)C(C2)N1C(=O)c1ccccc1-c1ncc(F)cn1` (racemic) [Example 212, (R/S)-[2-(5-fluoropyrimidin-2-yl)phenyl]-[2-isobutyl-5-[[5-(trifluoromethyl)-2-pyridyl]oxy]-3-azabicyclo[2.2.1]heptan-3-yl]methanone], the figures for the Ki on rat orexin 1 receptor, on human orexin 1 receptor and at human orexin 2 receptor were 100 nM, 55 nM and 3800 nM, respectively.
In the case of `CCC1C2CC(Oc3ccc(C(F)(F)F)cn3)C(C2)N1C(=O)c1ncc(C)cc1-n1nccn1` (racemic) [Example 216, (R/S)-[2-ethyl-5-[[5-(trifluoromethyl)-2-pyridyl]oxy]-3-azabicyclo[2.2.1]heptan-3-yl]-[5-methyl-3-(triazol-2-yl)-2-pyridyl]methanone], the figures for the Ki at rat orexin 1 receptor, on human orexin 1 receptor and on human orexin 2 receptor were 11 nM, 11 nM and 1500 nM, respectively.
Take `C[C@@H]1[C@H]2C[C@@H](Oc3cnc4ccccc4n3)[C@H](C2)N1C(=O)c1cccc(F)c1-n1nccn1` (relative stereo) [Example 184, (3-fluoro-2-(2H-1,2,3-triazol-2-yl)phenyl)((1S*,3R*,4R*,6R*)-3-methyl-6-(quinoxalin-2-yloxy)-2-azabicyclo[2.2.1]heptan-2-yl)methanone]: the Ki on rat orexin 1 receptor is 4 nM; on human orexin 1 receptor it was 2 nM.
For `CC1C2CC(Nc3cnc(C(F)(F)F)cn3)C(C2)N1C(=O)c1cccc(F)c1-c1ncccn1` (single isomer, unassigned) [Example 4, (R/S)-(3-fluoro-2-(pyrimidin-2-yl)phenyl)(3-methyl-6-((5-(trifluoromethyl)pyrazin-2-yl)amino)-2-azabicyclo[2.2.1]heptan-2-yl)methanone] the same measures were 56 nM and 59 nM.
For `CC1C2CC(Oc3ccc(C(F)(F)F)cn3)C(C2)N1C(=O)c1ccccc1-c1ncc(F)cn1` (single isomer, unassigned) [Example 19B, (2-(5-fluoropyrimidin-2-yl)phenyl)((1S*,3R*,4R*,6R*)-3-methyl-6-((5-(trifluoromethyl)pyridin-2-yl)oxy)-2-azabicyclo[2.2.1]heptan-2-yl)methanone] the same measures were 5 nM and 6 nM.
As to `CC1C2CC(Nc3cnc(C(F)(F)F)cn3)C(C2)N1C(=O)c1cccc(F)c1-c1ncccn1` (single isomer, unassigned) [Example 67, (R/S)-(3-fluoro-2-(pyrimidin-2-yl)phenyl)(3-methyl-6-((5-(trifluoromethyl)pyrazin-2-yl)amino)-2-azabicyclo[2.2.1]heptan-2-yl)methanone], the Ki on rat orexin 1 receptor is 16 nM; on human orexin 1 receptor, 21 nM.
Regarding `C[C@@H]1[C@H]2C[C@@H](Oc3ccc(Cl)cn3)[C@H](C2)N1C(=O)c1ccccc1-n1nccn1` [Example 121, [(1R,2R,4S,5R)-5-[(5-chloro-2-pyridyl)oxy]-2-methyl-3-azabicyclo[2.2.1]heptan-3-yl]-[2-(triazol-2-yl)phenyl]methanone], the Ki at rat orexin 1 receptor and on human orexin 1 receptor was 3 nM throughout.
As for `[2H]C1([2H])[C@H]2C[C@@H]([C@@H]1Oc1ccc(Cl)cn1)N(C(=O)c1ccccc1-n1nccn1)[C@@H]2C` [Example 195, [(1R,3R,4S,6R)-3-[(5-chloro-2-pyridyl)oxy]-2,2-dideuterio-6-methyl-5-azabicyclo[2.2.1]heptan-5-yl]-[2-(triazol-2-yl)phenyl]methanone], the Ki at rat orexin 1 receptor was found to be 8 nM; on human orexin 1 receptor, 4 nM.

As a reminder, the Ki is a dissociation constant, usually derived from enzyme kinetics or from competition with a known ligand.
